According to patent US20130195926A1, “MODULATION OF NITRIC OXIDE SIGNALING TO NORMALIZE TUMOR VASCULATURE” (The General Hospital Corporation, priority 2007, published 2013):

Assays:
nNOS = test: Western blot of nNOS knockdown in U87 tumors grown in cranial windows; type: in vivo; details: U87 tumors in cranial windows in Rag-1-/- mice
Description: The stably transfected cells were selected with 80 μg/ml of hygromycin B. The expression of nNOS protein in U87 tumor cells and tissues was determined by'Western blot analysis. Cultured U87MG cells washed with PBS and U87MG tumors homogenized by a tissue grinder were solubilized in 40 mM Tris-HCl, pH 6.8, 2% SDS, 10% glycerol, 1% β-mercaptoethanol, 0.01% bromophenol blue with one Complete Mini Protease Inhibitor Cocktail tablet (Roche Diagnostics) per 50 ml buffer.
Equal amounts of 60 micrograms of protein per sample were separated on 7.5% SDS polyacrylamide gels, transferred onto polyvinylidene fluoride membrane (Millipore), incubated with primary antibodies followed by secondary antibodies (the same antibodies used in immunohistochemistry studies. See Immunohistochemistry methods below), and detected using enhanced chemiluminescence (GE Healthcare) by exposure on autoradiography films (Kodak) (Xu, L., et al. 2005 Cancer Res. 65, 5711-5719; Canneliet, P., et al. 1998 Nature 394, 485-490; Xu, L., et al. 2002 Journal of Biological Chemistry 277, 11368-11374 (2002); and Xu, L., et al. 2004 Clinical Cancer Research 10, 701-707).
Recombination activating gene 1 (Rag-1^−/−) mice backcrossed to C57BL/6 background or severe combined immunodeficiency (SCID) mice, bred and maintained in an gnotobiotic animal facility, were used. To obtain source tumor tissue, U87 tumor cells in culture (1×10^6 cells) were injected subcutaneously into Rag-1^−/− or SCID mice matching the recipient mice. When the tumor reached about 8 mm in diameter, it was excised after euthanasia and a small piece (about 1 mm^3) of viable tumor tissue was implanted into a cranial window or subcutaneously into the calf area of the right hindlegs of the mice as previously described (Kashiwagi, S., et al. 2005 J. Clin. Invest. 115, 1816-1827; Kozin, S. V., et al. 2001 Cancer Research 61, 39-44). […]
U87 with nNOS shRNA (shRNA58, shRNA97, and shRNA150) were grown in cranial windows in Rag-1^−/− mice. Expression of nNOS in these tumors was determined by Western blot analysis. […]

U87 gliomas = test: NO distribution in U87 gliomas by DAF-2T fluorescence (MPLSM); type: in vivo, mice; details: U87 tumor with shRNA58 vs parental U87, cranial window, Rag-1-/- mice
Description: FIGS. 3A-B show microfluorographs depicting NO distribution in U87 gliomas grown in the cranial window in Rag-1^−/−. NO production was visualized by means of DAF-2T fluorescence 0, 20, 40 and 60 min after DAF-2 (0.5 mg/body) injection. Left column, micro-angiography with tetramethylrhodamine-dextran (2000 kDa). Middle column, representative DAF-2T microfluorography captured 60 min after the loading of DAF-2 in tumors. Right column, pseudocolor representation of DAF-2T microfluorographs. […] Bars indicate 100 μm. (A) NO distribution in parental U87MG (top row) or nNOS shRNA58-transfected-U87 (bottom row) tumors. […]
Vascular parameters such as functional vessel density (the total length of perfused microvessels per unit area) and vessel diameter were analyzed by tracing each vessel segment using NIH image 1.63 as described elsewhere (Kashiwagi, S., et al. 2005 J. Clin. Invest. 115, 1816-1827). Tissue distribution of NO was visualized using MPLSM and the NO-sensitive fluorescence probe 4,5-diaminofluorescein (DAF-2) (0.5 mg i.v. Daiichi Pure Chemicals Co. Ltd) as described previously (Kashiwagi, S., et al. 2005 J. Clin. Invest. 115, 1816-1827). NO converts DAF-2 to 4,5-diaminofluorescein triazolium (DAF-2T) increasing fluorescence by a factor of 200. The DAF-2 associated fluorescence images were captured 60 min after i.v. injection. […]

Row | Substance | Knockdown efficiency of nNOS in vivo (nNOS) [%] | DAF-associated fluorescence (NO distribution) (U87 gliomas)
1 | shRNA150: short-hairpin RNA for nNOS, GGTCTATCCAATGTCCACA (sense), TGTGGACATTGGATAGACCTT (antisense), in pSilencer 3.1 H-1-hygro | 96 | 
2 | shRNA58: short-hairpin RNA for nNOS, CAAAGAGATCGACACCATC (sense), GATGGTGTCGATCTCTTTGTT (antisense), in pSilencer 3.1 H-1-hygro, stably transfected into U87MG | 98 | predominantly localized in vascular region
